Test results taken from ChEMBL document CHEMBL1201862, “PubChem BioAssay data set” (2004).
Calls of active or inactive are those of the source.

Experiments:
[1] = A cytotoxicity screen of small molecule inhibitors of the PhoP region in Salmonella typhi identified in the primary screen. [Related pubchem assays: 1850, 1864, 1985 ]; type: functional
BJ [2] = experiment: BJ-TERT fibroblast viability loss – cell-based, RAS-independent, luminescence, dose response (AID 1933); type: functional; conditions: Homo sapiens
BJ [3] = experiment: cells; type: functional, cell-based; conditions: Homo sapiens
BJ [4] = experiment: BJ-TERT-LT-ST fibroblast viability loss – cell-based, RAS-independent, luminescence, dose response (AID 1935); type: functional; conditions: Homo sapiens;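 further: BJ fibroblasts immortalized with TERT plus LT and ST oncogenes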
[5] = DRD fibroblast viability loss – cell-based, non-viral oncogenic, luminescence, dose response (AID 1934); type: functional; conditions: Homo sapiens
Prothrombin [6] = biological target: Prothrombin (Homo sapiens, UniProt P00734); experiment: Thrombin 1536 HTS Dose Response Confirmation. [Related pubchem assays: 1046 (Thrombin 1536 HTS; hits were confirmed in this assay)]; type: functional
[7] = biological target: T1, Mannose-6-phosphate isomerase (Homo sapiens, UniProt P34949); experiment: MPI inhibition at elevated mannose 6-phosphate – biochemical, fluorescence intensity, high mannose 6-phosphate, primary screen (AID 1220)
T1 sequence (P34949 whole entry): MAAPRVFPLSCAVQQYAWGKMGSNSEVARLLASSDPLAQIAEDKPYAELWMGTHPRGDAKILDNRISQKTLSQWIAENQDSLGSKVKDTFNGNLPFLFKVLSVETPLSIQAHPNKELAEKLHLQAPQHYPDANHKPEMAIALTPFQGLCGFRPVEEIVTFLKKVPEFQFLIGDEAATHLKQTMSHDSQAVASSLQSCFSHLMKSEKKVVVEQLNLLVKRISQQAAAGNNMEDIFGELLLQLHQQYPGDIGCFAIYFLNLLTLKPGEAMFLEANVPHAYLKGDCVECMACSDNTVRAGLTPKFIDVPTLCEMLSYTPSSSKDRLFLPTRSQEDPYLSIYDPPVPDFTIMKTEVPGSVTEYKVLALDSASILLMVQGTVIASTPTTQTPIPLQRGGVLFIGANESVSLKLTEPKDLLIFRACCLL

[8] = biological target: T2, Polyadenylate-binding protein 1 (Homo sapiens, UniProt P11940); experiment: MLLE binding blockers, Cy5 peptide tracer – biochemical, fluorescence polarization, Cy5-PAM2 peptide, secondary, miRNA deadenylation inhibitor project, dose response (AID 602260); type: functional; conditions: read-out: IC50_Mean
[9] = biological target: T2, Polyadenylate-binding protein 1; experiment: MLLE domain peptide-binding blockers, IC50 – biochemical, fluorescence polarization, FITC-PAM2 peptide, dose response (AID 602259); type: functional; conditions: read-out: IC50_Mean
Kallikrein-7 = Kallikrein-7 (Homo sapiens, UniProt P49862); experiment: Fluorescence Intensity-based biochemical primary high throughput dose response assay to identify activators of kallikrein-7 (K7) zymogen.
[10] = biological target: 26S proteasome non-ATPase regulatory subunit 14 (Homo sapiens, UniProt O00487); experiment: inhibition of proteasome subunit RPN11 – biochemical, fluorescence polarization, uHTS hits, confirmation (AID 602368); type: functional
[11] = biological target: 72 kDa type IV collagenase (Homo sapiens, UniProt P08253); experiment: Dose Response validation of uHTS RPN11 inhibitor hits using a MMP-2 Fluorescence assay.; type: functional
Prothrombin [12] = biological target: Prothrombin (Bos taurus, UniProt P00735); experiment: thrombin protease inhibitors – biochemical, fluorescence polarization, uHTS hits, dose response (AID 602369); type: functional
[13] = viability of uninfected HEp-2 cells – cell-based, HTS, cytotoxicity control for RSV inhibitor project, dose response (AID 2410); type: functional; conditions: human respiratory syncytial virus
[14] = blockers of HIV-1 envelope-mediated cell-cell fusion – cherry-pick, dose response (AID 652057); type: functional, cell-based
[15] = blockers of HIV-1 ZM109 envelope-driven cell-cell fusion – HeLa effector, CEM target cells, luciferase, cherry-pick, dose response (AID 652058); type: functional, cell-based;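 further: luciferase signal from HIV-1 Env mediated cell-cell fusion of effector and target cells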
[16] = off-target signal loss in HeLa-CEM21 co-culture – HeLa F-luc CTL cells, cherry-picked, counter-screen for HIV-1 Env fusion inhibitor project, dose response (AID 652040); type: functional, cell-based;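 further: potency for signal decrease marking cytotoxic or nonspecific inhibition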
[17] = HIV-1 AD8 envelope cell-cell fusion blockers – cherry-pick, dose response (AID 652062); type: functional, cell-based;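 further: luciferase signal from cell-cell fusion driven by HIV-1 clade B AD8 Env; potency is for inhibitors of fusion seen as a drop in luminescence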
H9c2 = experiment: cells; type: functional, cell-based; conditions: Rattus norvegicus, H9c2, Myocardium
INS1 = experiment: INS-1E survival protection against cytokine death – cell-based, luminescence, retest, dose response (AID 449756); type: functional; conditions: Rattus norvegicus;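 further: cell death triggered by IL-1 beta plus TNF-alpha plus IFN-gamma mixture; protective hits raise ATP signal compared with cytokine alone wells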

72 kDa type IV collagenase, sequence (P08253 whole entry): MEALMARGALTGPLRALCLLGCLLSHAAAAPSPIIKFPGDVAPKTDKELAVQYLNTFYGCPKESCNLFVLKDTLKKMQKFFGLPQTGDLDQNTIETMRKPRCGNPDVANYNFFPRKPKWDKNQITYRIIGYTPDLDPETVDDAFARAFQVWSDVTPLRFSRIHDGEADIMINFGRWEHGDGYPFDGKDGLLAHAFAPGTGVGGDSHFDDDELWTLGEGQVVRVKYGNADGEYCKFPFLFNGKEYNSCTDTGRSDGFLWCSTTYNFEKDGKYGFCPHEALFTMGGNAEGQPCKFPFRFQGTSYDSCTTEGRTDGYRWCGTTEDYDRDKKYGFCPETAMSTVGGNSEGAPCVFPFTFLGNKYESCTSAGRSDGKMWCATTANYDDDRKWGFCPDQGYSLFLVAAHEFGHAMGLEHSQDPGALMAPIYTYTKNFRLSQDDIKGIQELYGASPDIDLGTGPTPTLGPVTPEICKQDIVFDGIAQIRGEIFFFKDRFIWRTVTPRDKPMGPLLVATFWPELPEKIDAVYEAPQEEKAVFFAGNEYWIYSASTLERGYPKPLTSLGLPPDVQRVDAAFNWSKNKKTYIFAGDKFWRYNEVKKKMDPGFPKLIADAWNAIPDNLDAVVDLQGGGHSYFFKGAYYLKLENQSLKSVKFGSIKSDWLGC
Kallikrein-7, sequence (P49862 whole entry): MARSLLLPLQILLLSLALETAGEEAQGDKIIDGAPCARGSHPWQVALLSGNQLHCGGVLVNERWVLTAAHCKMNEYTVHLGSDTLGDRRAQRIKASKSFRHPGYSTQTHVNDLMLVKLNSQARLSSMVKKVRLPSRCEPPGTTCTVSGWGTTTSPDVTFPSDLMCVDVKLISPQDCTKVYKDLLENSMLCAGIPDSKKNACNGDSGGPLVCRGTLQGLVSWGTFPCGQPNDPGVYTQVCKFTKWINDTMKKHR
26S proteasome non-ATPase regulatory subunit 14, sequence (O00487 whole entry): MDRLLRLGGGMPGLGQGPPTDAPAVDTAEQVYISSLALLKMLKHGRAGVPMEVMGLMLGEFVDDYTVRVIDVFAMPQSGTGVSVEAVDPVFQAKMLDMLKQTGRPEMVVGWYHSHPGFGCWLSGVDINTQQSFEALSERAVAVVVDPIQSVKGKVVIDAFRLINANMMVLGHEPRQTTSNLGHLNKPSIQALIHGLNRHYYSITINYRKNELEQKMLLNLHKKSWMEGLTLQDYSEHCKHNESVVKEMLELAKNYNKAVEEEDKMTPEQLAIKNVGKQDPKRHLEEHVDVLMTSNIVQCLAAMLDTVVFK
T2 sequence (P11940 whole entry, the tested form may be a part): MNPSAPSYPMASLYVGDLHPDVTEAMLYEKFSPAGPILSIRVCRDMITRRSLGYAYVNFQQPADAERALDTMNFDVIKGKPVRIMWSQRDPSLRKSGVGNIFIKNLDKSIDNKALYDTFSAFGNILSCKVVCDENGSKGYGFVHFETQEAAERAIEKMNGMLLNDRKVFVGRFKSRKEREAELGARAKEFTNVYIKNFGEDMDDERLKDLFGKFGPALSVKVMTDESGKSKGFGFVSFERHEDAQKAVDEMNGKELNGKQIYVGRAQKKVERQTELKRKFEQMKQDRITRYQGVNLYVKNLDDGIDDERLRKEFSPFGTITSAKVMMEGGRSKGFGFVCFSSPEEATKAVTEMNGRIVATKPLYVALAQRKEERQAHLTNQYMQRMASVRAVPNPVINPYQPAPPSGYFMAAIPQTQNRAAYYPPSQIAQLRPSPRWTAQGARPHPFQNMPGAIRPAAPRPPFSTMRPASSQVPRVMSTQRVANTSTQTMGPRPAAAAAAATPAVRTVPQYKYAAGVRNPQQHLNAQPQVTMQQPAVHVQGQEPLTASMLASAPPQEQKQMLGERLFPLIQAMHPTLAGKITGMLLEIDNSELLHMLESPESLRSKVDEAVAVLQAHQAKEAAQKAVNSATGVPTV

## COc1ccccc1C(=O)N1CC2(C)CC1CC(C)(C)C2 (stereo not given)
[1]
  EC50: > 50 µM (active)

## COc1cc(Nc2c3c(nc4ccccc24)CCC3)cc(OC)c1OC
BJ [2]
  EC50: 2.86 µM (active)
BJ [3]
  EC50: 42.7 µM (inconclusive)
BJ [4]
  EC50: 18.5 µM (inconclusive)
[5]
  EC50: 2.38 µM (active)

## CC(=O)N1C(=O)/C(=C2\SC(=S)N(c3c(C)n(C)n(-c4ccccc4)c3=O)C2=O)c2ccccc21
Prothrombin [6]
  IC50: 8.97 µM (active)
[7]
  IC50: > 50 µM (not active)
[8]
  IC50: > 66 µM (inactive)
[9]
  IC50: > 66 µM (inactive)

## CCCC(=O)Nc1ccc2nn(-c3ccc(OC)cc3)nc2c1
Kallikrein-7
  EC50: > 69.5 µM (inactive)

## CCOC(=O)Cc1csc(NC(=O)c2sc3nc4ccc(C)cc4cc3c2N)n1
[10]
  IC50: 33.9 µM (active)
[11]
  IC50: > 100 µM (inactive)
Prothrombin [12]
  IC50: 77.9 µM (active)

## COC(=O)C1=C(C)N(CC2CC2)C(=O)N[C@H]1c1ccc(Br)cc1
[13]
  CC50: 35.1 µM (active)
[1]
  EC50: > 50 µM (active)
[14]
  AC50: 7.14 µM (active)
[15]
  AC50: 14.7 µM (active)
[16]
  AC50: 11.7 µM (active)
[17]
  AC50: 8.52 µM (active)

## COc1ccc(OC)c(N2C(=O)/C(=C/Nc3c(C)n(C)n(-c4ccccc4)c3=O)C(=O)NC2=S)c1
[10]
  IC50: 34.7 µM (active)
[11]
  IC50: 38.7 µM (active)
Prothrombin [12]
  IC50: 51.9 µM (active)

## COc1ccccc1NC(=O)COc1ccc(C(=O)OCC(=O)NC(C)(C)C)cc1OC
H9c2
  IC50: > 79 µM (inactive)

## Oc1ccc(CNc2ccccc2)c2cccnc12
[7]
  IC50: > 50 µM (not active)
INS1
  AC50: 14.4 µM (active)

## CCc1cc2c(CN3CCN(Cc4ccccc4)CC3)cc(=O)oc2cc1O
Kallikrein-7
  EC50: > 69.5 µM (inactive)

## COc1ccccc1NC(=O)CSc1nc(N)c(C#N)cc1C#N
[10]
  IC50: 36.2 µM (active)
[11]
  IC50: > 100 µM (inactive)
Prothrombin [12]
  IC50: 55.8 µM (active)

## CCCCc1cc(=O)oc2cc(C)cc(OCC(=O)N3CCC(C(=O)O)CC3)c12
Kallikrein-7
  EC50: > 7.72 µM (active)
